ChEMBL document CHEMBL1944593, “Heteroaromatic-aminomethyl quinolones: potent and selective iNOS inhibitors” (Bioorg Med Chem Lett, 2012)

How the values were obtained:
Homo sapiens = organism: Homo sapiens; assay: Selectivity ratio of IC50 for human eNOS to IC50 for human iNOS
Nitric oxide synthase 1 = Nitric oxide synthase 1 (Homo sapiens, UniProt P29475); assay: Inhibition of human nNOS expressed in HEK293 cells assessed as NO production by 2,3-diaminonapthalene-based fluorescence assay; assay type: cell-based
[1] = target: Nitric oxide synthase, inducible (Homo sapiens, UniProt P35228); assay: Inhibition of human iNOS expressed in HEK293 cells assessed as NO production by 2,3-diaminonapthalene-based fluorescence assay; assay type: cell-based
[2] = target: Nitric oxide sythases; iNOS & nNOS (Homo sapiens) (UniProt P29475+P35228); assay: Selectivity ratio of IC50 for human nNOS to IC50 for human iNOS
Nitric oxide synthase 3 = target: T1, Nitric oxide synthase 3 (Homo sapiens, UniProt P29474); assay: Inhibition of human eNOS expressed in HEK293 cells assessed as NO production by 2,3-diaminonapthalene-based fluorescence assay; assay type: cell-based
T1 sequence (P29474 whole entry): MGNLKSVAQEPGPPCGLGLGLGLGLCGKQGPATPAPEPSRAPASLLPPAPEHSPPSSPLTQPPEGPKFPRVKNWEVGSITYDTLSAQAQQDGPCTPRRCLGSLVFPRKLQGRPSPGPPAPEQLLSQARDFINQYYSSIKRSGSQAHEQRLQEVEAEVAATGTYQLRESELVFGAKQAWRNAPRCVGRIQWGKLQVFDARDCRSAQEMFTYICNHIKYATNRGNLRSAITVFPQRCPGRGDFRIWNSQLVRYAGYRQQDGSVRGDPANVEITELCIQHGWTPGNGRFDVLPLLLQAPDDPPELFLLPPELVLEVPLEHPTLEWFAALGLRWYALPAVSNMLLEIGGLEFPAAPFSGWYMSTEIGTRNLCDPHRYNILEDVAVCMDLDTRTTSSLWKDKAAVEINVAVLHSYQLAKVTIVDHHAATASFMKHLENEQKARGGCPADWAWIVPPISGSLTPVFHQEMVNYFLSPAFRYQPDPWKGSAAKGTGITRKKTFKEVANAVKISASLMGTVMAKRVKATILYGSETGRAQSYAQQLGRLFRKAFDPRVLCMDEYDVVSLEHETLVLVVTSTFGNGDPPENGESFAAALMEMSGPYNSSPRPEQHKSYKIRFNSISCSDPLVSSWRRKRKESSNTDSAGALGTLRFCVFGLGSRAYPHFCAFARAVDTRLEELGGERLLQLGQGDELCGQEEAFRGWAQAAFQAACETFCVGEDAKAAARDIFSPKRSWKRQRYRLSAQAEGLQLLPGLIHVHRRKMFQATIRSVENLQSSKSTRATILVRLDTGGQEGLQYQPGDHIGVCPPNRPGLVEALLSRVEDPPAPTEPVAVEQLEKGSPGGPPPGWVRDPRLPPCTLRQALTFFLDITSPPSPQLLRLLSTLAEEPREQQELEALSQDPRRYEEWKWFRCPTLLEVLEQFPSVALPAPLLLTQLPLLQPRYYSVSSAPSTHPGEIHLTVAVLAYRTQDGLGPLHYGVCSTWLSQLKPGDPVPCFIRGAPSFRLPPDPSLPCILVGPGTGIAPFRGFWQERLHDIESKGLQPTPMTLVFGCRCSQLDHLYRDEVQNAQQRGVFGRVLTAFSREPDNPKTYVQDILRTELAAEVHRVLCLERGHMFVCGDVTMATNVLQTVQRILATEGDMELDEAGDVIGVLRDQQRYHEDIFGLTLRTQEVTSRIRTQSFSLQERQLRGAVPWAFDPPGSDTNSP

[3] = AUC in mouse at 10 mg/kg, po; assay type: ADME, organism-based; set-up: dose 10 mg/kg, route oral; details: plasma
Mus musculus [4] = assay: Antiinflammatory activity in mouse assessed as reduction in LPS-induced nitatre level in plasma at 30 mg/kg, po; assay type: functional; set-up: scale not given: the % may be the effect or the level left
[5] = Cmax in mouse at 10 mg/kg, po; assay type: ADME, organism-based; set-up: dose 10 mg/kg, route oral; details: in vivo
[6] = Volume of distribution at steady state in mouse; assay type: ADME, organism-based; details: in vivo, read-out: Vdss
[7] = Half life in mouse; assay type: ADME, organism-based; details: in vivo
[8] = target: T2, Nitric oxide synthase, inducible (Mus musculus, UniProt P29477); assay: Inhibition of mouse iNOS
T2 sequence (P29477 whole entry): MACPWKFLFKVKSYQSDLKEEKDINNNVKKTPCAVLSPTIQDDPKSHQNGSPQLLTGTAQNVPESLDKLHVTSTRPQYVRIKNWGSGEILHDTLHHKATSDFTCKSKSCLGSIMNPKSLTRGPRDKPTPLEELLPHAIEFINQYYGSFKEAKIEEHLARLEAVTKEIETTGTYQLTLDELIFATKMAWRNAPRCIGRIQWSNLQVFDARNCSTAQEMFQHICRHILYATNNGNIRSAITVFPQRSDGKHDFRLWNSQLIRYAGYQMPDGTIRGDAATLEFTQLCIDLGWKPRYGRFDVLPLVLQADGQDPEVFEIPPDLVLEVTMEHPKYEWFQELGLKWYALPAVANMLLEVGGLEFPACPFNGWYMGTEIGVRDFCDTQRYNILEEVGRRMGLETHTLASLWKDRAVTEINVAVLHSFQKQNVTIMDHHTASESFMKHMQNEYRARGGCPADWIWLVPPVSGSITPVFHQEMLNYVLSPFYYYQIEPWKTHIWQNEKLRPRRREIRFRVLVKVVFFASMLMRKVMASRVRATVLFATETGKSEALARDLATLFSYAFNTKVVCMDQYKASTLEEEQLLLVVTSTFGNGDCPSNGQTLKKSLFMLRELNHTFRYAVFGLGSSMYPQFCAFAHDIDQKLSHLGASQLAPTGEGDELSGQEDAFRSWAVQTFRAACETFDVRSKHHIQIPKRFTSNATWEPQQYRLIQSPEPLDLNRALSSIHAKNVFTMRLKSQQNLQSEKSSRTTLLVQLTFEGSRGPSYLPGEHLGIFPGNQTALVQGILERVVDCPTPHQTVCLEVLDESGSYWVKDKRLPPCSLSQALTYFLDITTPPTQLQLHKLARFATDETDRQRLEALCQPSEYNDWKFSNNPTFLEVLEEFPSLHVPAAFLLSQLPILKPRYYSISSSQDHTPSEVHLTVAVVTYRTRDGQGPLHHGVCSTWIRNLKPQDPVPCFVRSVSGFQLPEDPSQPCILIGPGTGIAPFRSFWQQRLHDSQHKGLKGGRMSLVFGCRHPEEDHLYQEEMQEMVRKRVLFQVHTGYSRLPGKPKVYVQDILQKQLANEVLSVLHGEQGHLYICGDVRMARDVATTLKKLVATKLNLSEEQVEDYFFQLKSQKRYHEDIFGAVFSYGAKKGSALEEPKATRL

Mus musculus [9] = assay: Antiinflammatory activity in po dosed mouse assessed as reduction in LPS-induced nitatre level in plasma; assay type: functional
[10] = Plasma clearance in mouse; assay type: ADME, organism-based
[11] = Oral bioavailability in mouse at 10 mg/kg; assay type: ADME, organism-based; details: in vivo
[12] = target: T3, Nitric oxide synthase 3 (Homo sapiens) (UniProt P29474); assay: Inhibition of human eNOS expressed in HEK293 cells assessed as NO production at 30 uM by 2,3-diaminonapthalene-based fluorescence assay; assay type: cell-based
T3 sequence (whole entry): T1 sequence (P29474 whole entry)

[13] = Half life in mouse liver microsomes; assay type: ADME, Microsome

Sequence of Nitric oxide synthase, inducible (Homo sapiens, UniProt P35228) (P35228 whole entry): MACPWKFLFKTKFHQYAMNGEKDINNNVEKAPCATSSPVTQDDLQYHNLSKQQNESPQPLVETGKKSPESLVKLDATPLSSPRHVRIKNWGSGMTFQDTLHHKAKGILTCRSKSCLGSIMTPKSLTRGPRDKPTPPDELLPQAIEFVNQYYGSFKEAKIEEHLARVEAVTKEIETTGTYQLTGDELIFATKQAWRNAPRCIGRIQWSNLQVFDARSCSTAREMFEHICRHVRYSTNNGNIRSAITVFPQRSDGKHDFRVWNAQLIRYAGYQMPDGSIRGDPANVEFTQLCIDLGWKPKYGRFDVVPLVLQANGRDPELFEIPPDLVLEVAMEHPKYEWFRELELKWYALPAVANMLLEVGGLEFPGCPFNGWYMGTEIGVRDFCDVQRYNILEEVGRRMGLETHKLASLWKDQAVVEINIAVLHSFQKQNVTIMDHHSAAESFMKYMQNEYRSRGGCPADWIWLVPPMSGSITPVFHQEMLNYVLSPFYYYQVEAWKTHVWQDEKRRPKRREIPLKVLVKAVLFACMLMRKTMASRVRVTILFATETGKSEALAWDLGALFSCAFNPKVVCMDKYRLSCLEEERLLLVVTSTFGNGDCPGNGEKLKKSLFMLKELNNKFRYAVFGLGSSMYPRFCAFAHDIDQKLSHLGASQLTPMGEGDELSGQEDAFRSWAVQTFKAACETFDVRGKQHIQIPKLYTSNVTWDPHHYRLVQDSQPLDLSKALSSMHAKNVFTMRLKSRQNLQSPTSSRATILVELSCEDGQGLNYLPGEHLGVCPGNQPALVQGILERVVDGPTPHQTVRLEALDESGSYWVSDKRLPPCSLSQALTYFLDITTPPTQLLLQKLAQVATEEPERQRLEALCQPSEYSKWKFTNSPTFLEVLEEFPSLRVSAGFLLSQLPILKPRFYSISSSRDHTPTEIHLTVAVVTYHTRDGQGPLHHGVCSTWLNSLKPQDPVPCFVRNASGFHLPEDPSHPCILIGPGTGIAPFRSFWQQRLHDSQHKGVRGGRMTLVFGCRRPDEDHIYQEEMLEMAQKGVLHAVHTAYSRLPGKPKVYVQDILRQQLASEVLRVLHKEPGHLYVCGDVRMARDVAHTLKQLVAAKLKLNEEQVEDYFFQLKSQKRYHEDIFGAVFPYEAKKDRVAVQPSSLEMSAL
Sequence of Nitric oxide synthase 1 (P29475 whole entry): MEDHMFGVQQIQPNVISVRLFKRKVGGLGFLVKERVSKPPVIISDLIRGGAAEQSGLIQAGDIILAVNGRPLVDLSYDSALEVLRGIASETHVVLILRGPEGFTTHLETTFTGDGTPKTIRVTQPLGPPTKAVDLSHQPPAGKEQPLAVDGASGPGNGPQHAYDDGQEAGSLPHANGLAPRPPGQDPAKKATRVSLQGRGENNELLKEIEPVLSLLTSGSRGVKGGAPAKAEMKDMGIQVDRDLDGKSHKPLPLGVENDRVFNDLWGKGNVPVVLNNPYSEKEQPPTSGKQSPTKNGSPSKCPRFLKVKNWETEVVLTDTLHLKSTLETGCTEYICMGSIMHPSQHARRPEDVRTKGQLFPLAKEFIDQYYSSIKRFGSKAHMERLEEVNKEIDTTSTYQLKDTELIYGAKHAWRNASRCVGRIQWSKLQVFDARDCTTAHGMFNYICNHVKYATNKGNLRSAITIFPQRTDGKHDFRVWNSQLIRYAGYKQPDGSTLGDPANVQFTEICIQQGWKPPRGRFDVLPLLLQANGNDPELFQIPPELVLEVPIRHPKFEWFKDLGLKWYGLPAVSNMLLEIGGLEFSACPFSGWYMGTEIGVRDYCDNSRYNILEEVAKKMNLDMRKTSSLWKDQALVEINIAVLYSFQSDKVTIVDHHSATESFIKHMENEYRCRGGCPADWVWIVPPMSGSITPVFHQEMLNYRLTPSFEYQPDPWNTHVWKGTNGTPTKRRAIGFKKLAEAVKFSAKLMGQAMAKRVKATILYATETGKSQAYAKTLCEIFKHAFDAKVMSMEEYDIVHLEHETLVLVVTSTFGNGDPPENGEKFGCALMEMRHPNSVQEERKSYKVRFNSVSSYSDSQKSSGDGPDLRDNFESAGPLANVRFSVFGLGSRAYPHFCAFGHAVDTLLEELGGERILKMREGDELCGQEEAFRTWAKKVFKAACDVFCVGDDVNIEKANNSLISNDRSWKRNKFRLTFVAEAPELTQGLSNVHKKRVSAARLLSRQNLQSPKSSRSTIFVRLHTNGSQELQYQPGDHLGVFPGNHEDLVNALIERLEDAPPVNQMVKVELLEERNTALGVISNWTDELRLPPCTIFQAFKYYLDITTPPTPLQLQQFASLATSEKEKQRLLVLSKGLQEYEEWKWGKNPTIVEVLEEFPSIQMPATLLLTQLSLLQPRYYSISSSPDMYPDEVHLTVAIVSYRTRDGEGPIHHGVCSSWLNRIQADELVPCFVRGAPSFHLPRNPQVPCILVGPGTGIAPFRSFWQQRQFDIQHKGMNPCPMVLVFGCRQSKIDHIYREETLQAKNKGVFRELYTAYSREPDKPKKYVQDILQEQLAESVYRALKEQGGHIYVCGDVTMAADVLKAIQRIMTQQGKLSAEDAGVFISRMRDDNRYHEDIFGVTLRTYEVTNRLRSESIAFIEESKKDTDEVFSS
Sequence of Nitric oxide sythases; iNOS & nNOS (Homo sapiens) (P29475 whole entry, looked up): as the sequence (P29475 whole entry) above
Sequence of Nitric oxide sythases; iNOS & nNOS (Homo sapiens) (P35228 whole entry, looked up): as the sequence (P35228 whole entry) above

| Structure (SMILES) | Ratio IC50 (Homo sapiens) | IC50 (Nitric oxide synthase 1) | IC50 [1] | Ratio IC50 [2] | IC50 (Nitric oxide synthase 3) | other results |
| --- | --- | --- | --- | --- | --- | --- |
| O=c1cc(CN(Cc2ccccc2Cl)c2cnccn2)c2ccc(F)c(F)c2[nH]1 | 1000 | 60 nM | 12 nM | 5 | 12000 nM | – |
| O=c1cc(CN(c2cncnc2)c2cccc(Cl)c2)c2ccc(F)c(F)c2[nH]1 | 375 | 1600 nM | 210 nM | 8 | 79000 nM | – |
| O=c1cc(CN(c2cccc(Cl)c2)c2cnccn2)c2ccc(F)c(F)c2[nH]1 | 300 | 12 nM | 5 nM | 2 | 1500 nM | AUC [3]: 120 ng·h/mL; Activity (Mus musculus [4]): 80%; Cmax [5]: 45 ng/mL; Vd [6]: 1.7 L/kg; half-life [7]: 2.1 h; IC50 [8]: 5 nM; ED50 (Mus musculus [9]): 3.6 mg/kg; clearance [10]: 34 mL/min/kg; bioavailability [11]: 3% |
| O=c1cc(CN(c2cccc(Cl)c2)c2ccccn2)c2ccc(F)c(F)c2[nH]1 | > 1000 | 170 nM | 31 nM | 5 | > 30000 nM | inhibition [12]: < 50% |
| Cc1ccccc1CN(Cc1cc(=O)[nH]c2c(F)c(F)ccc12)c1cnccn1 | 1300 | 46 nM | 10 nM | 5 | 13000 nM | – |
| O=c1cc(CN(c2ccccc2)c2cccc(Cl)c2)c2ccc(F)c(F)c2[nH]1 | > 20 | – | 1500 nM | – | > 30000 nM | inhibition [12]: < 50% |
| CN(C)c1cc(N(Cc2cc(=O)[nH]c3c(F)c(F)ccc23)c2cccc(Cl)c2)ncn1 | > 1000 | 500 nM | 28 nM | 20 | > 30000 nM | inhibition [12]: < 50% |
| O=c1cc(CN(Cc2ccccc2)c2cnccn2)c2ccc(F)c(F)c2[nH]1 | 500 | 100 nM | 13 nM | 8 | 6400 nM | – |
| O=c1cc(CN(Cc2cccc(Cl)c2)c2cnccn2)c2ccc(F)c(F)c2[nH]1 | 40 | 330 nM | 220 nM | 2 | 8300 nM | half-life [13]: < 0.333 h |
| O=c1cc(CN(c2ccncc2)c2cccc(Cl)c2)c2ccc(F)c(F)c2[nH]1 | 170 | 240 nM | 130 nM | 2 | 23000 nM | – |
| Cc1cc(N(Cc2cc(=O)[nH]c3c(F)c(F)ccc23)c2cccc(Cl)c2)ncn1 | > 500 | 160 nM | 53 nM | 3 | > 30000 nM | inhibition [12]: < 50% |
| O=c1cc(CN(c2cccc(Cl)c2)c2ncccn2)c2ccc(F)c(F)c2[nH]1 | 425 | 69 nM | 13 nM | 5 | 5500 nM | – |
| Fc1ccc2c(CN(c3cccc(Cl)c3)c3ncccn3)cncc2c1F | > 1000 | – | 200 nM | – | – | – |
| Cn1ncc2c(N(Cc3cc(=O)[nH]c4c(F)c(F)ccc34)c3cccc(Cl)c3)ncnc21 | 730 | 62 nM | 11 nM | – | 8300 nM | half-life [13]: < 0.5 h |
| Cc1cccnc1N(Cc1cc(=O)[nH]c2c(F)c(F)ccc12)c1cccc(Cl)c1 | > 85 | – | 350 nM | – | > 30000 nM | inhibition [12]: < 50% |
| O=c1cc(CN(c2cccnc2)c2cccc(Cl)c2)c2ccc(F)c(F)c2[nH]1 | 180 | 370 nM | 77 nM | 5 | 14000 nM | – |

More lines, main results first:

| Ratio IC50 (Homo sapiens) | IC50 (Nitric oxide synthase 1) | IC50 [1] | Ratio IC50 [2] | IC50 (Nitric oxide synthase 3) | Structure (SMILES) | other results |
| --- | --- | --- | --- | --- | --- | --- |
| > 1000 | – | 17 nM | 9 | – | [O-][n+]1cc(CN(c2cccc(Cl)c2)c2ncccn2)c2ccc(F)c(F)c2c1 | – |
| 230 | 213 nM | 33 nM | 7 | 7500 nM | Cc1nccc(N(Cc2cc(=O)[nH]c3c(F)c(F)ccc23)c2cccc(Cl)c2)n1 | Activity (Mus musculus [4]): 55%; half-life [13]: 1.5 h |
| 1000 | 150 nM | 14 nM | 11 | 13000 nM | O=c1cc(CN(c2cccc(Cl)c2)c2ccncn2)c2ccc(F)c(F)c2[nH]1 | – |
| 140 | 440 nM | 78 nM | 6 | 11000 nM | O=c1cc(CN(Cc2ccccn2)c2cnccn2)c2ccc(F)c(F)c2[nH]1 | half-life [13]: < 0.333 h |
| > 500 | 130 nM | 61 nM | 2 | > 30000 nM | COc1cc(N(Cc2cc(=O)[nH]c3c(F)c(F)ccc23)c2cccc(Cl)c2)ncn1 | inhibition [12]: < 50% |
| 900 | 64 nM | 12 nM | 5 | 11000 nM | O=c1cc(CN(Cc2ccccc2F)c2cnccn2)c2ccc(F)c(F)c2[nH]1 | – |
| – | – | 91 nM | – | – | O=c1cc(Cn2c(C3CCC3)nc3nccnc32)c2ccc(F)c(F)c2[nH]1 | AUC [3]: 25000 ng·h/mL; Vd [6]: 0.4 L/kg; IC50 [8]: 500 nM; ED50 (Mus musculus [9]): 1 mg/kg |
| > 20 | – | 1300 nM | – | > 30000 nM | CN(C)c1nccc(N(Cc2cc(=O)[nH]c3c(F)c(F)ccc23)c2cccc(Cl)c2)n1 | inhibition [12]: < 50% |
| 500 | 360 nM | 43 nM | 8 | 21000 nM | O=c1cc(CN(c2cccc(Cl)c2)c2cccnn2)c2ccc(F)c(F)c2[nH]1 | – |
| 90 | 120 nM | 77 nM | 2 | 7100 nM | O=c1cc(CN(Cc2ccc(Cl)cc2)c2cnccn2)c2ccc(F)c(F)c2[nH]1 | half-life [13]: < 0.333 h |
